Reference: patent US20250136586A1, “Substituted 7-(Pyrimidin-4-yl)Quinolin-4(1H)-One Compounds as Cyclin Dependent Kinase Inhibitors” (BeiGene, Ltd., priority 2022, published 2025)

Assays:
CDK6/Cyclin D3 = CDK6/Cyclin D3 (Homo sapiens (Human), UniProt Q00534); experiment: TR-FRET kinase inhibition assay, CDK6/Cyclin D3; format: biochemical; details: 1 mM ATP, 0.15 μM Rb (Ser780)-biotin substrate, read-out: CDK6D3 IC50
Method in brief: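 Kinase preincubated 60 min at room temperature with 0–10 μM compound; reaction started with 1 mM ATP and 0.15 μM Rb (Ser780)-biotin, run 120 min at room temperature in HEPES pH 7.0, 50 mM MgCl2. pRb detected by TR-FRET (665/620 nm ratio); IC50 from four-parameter logistic fit.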

CDK4/Cyclin D1 = CDK4/Cyclin D1 (Homo sapiens (Human), UniProt P11802); experiment: TR-FRET kinase inhibition assay, CDK4/Cyclin D1; format: biochemical; details: 1 mM ATP, 0.15 μM Rb (Ser780)-biotin substrate, read-out: CDK4D1 IC50
Chain of CDK4/Cyclin D1 (P11802 whole entry): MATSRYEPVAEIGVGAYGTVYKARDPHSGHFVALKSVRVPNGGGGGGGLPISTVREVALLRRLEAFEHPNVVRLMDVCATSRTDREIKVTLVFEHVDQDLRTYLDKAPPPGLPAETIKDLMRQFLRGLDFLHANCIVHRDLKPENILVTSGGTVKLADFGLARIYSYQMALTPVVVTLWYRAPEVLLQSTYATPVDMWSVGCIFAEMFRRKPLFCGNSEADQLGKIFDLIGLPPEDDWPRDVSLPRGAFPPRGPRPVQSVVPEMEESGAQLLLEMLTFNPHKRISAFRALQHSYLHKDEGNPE
Chain of CDK4/Cyclin D1 (P24385 whole entry partner): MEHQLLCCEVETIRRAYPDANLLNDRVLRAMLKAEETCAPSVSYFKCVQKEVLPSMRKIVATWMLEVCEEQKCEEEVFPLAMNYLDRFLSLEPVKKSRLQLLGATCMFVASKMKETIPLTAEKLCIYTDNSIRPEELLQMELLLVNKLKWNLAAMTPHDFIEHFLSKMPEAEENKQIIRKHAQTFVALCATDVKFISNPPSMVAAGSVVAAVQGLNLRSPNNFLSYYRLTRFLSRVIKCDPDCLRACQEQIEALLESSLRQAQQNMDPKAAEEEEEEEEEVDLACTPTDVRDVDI
Method in brief: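 Kinase was preincubated with compound for 60 min at room temperature, then reacted with ATP and Rb (Ser780)-biotin substrate for 120 min. IC50 came from a four-parameter logistic fit.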

Chain of CDK6/Cyclin D3 (Q00534 whole entry): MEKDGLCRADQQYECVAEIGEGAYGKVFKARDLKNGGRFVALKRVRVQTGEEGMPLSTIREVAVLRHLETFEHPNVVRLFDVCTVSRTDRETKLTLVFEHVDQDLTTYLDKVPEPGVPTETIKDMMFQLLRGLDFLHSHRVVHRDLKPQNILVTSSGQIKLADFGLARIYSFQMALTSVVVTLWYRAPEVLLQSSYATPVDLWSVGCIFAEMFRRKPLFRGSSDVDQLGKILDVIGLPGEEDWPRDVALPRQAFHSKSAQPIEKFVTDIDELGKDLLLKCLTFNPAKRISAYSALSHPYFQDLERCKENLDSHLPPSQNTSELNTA
Chain of CDK6/Cyclin D3 (P30281 whole entry partner): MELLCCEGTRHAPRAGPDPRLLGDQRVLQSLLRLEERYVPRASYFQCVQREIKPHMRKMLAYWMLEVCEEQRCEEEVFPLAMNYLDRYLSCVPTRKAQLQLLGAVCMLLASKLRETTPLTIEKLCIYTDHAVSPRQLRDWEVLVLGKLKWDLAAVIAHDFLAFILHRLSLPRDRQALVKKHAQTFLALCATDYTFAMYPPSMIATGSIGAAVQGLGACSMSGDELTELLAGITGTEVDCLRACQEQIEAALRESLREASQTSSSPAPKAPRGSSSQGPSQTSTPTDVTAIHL

Compound: CC(C)n1c(CN2CCC[C@@]3(CCNC3=O)C2)cc(=O)c2ccc(-c3nc(N[C@@H]4CCOC[C@H]4O)ncc3F)cc21 [Example 104, (R)-7-((7-(5-fluoro-2-(((3S,4R)-3-hydroxytetrahydro-2H-pyran-4-yl)amino)pyrimidin-4-yl)-1-isopropyl-4-oxo-1,4-dihydroquinolin-2-yl)methyl)-2,7-diazaspiro[4.5]decan-1-one]
- IC50 (CDK6/Cyclin D3): 139 nM
- IC50 (CDK4/Cyclin D1): 24 nM

Compound: CC(C)n1c(CN[C@H]2C[C@H](F)C2)cc(=O)c2ccc(-c3nc(N[C@@H]4CCOC[C@H]4O)ncc3F)cc21 [Example 63, 7-(5-fluoro-2-(((3S,4R)-3-hydroxytetrahydro-2H-pyran-4-yl)amino)pyrimidin-4-yl)-2-((((1r,3R)-3-fluorocyclobutyl)amino)methyl)-1-isopropylquinolin-4(1H)-one]
- IC50 (CDK6/Cyclin D3): 484 nM
- IC50 (CDK4/Cyclin D1): 22 nM

Compound: CC(C)n1c(CN2C[C@@H]3C[C@H]2CO3)cc(=O)c2ccc(-c3nc(N[C@@H]4CCOC[C@H]4O)ncc3F)cc21 [Example 34, 2-(((1S,4S)-2-oxa-5-azabicyclo[2.2.1]heptan-5-yl)methyl)-7-(5-fluoro-2-(((3S,4R)-3-hydroxytetrahydro-2H-pyran-4-yl)amino)pyrimidin-4-yl)-1-isopropylquinolin-4(1H)-one]
- IC50 (CDK6/Cyclin D3): 430 nM
- IC50 (CDK4/Cyclin D1): 10 nM

Compound: Cc1c(CO)n(C(C)C)c2cc(-c3nc(N[C@@H]4CCOC[C@H]4O)ncc3F)ccc2c1=O [Example 119, 7-(5-fluoro-2-(((3S,4R)-3-hydroxytetrahydro-2H-pyran-4-yl)amino)pyrimidin-4-yl)-2-(hydroxymethyl)-1-isopropyl-3-methylquinolin-4(1H)-one]
- IC50 (CDK6/Cyclin D3): 273 nM
- IC50 (CDK4/Cyclin D1): 9.1 nM

Compound: CC(C)n1c(CNc2cccc(Cl)c2)cc(=O)c2ccc(-c3nc(N[C@@H]4CCOC[C@H]4O)ncc3F)cc21 [Example 95, 2-(((3-chlorophenyl)amino)methyl)-7-(5-fluoro-2-(((3S,4R)-3-hydroxytetrahydro-2H-pyran-4-yl)amino)pyrimidin-4-yl)-1-isopropylquinolin-4(1H)-one]
- IC50 (CDK6/Cyclin D3): 208 nM
- IC50 (CDK4/Cyclin D1): 13 nM

Compound: CC(C)n1c(CNC2CC2)cc(=O)c2ccc(-c3nc(N[C@@H]4CCOC[C@H]4O)ncc3F)cc21 [Example 48, 2-((cyclopropylamino)methyl)-7-(5-fluoro-2-(((3S,4R)-3-hydroxytetrahydro-2H-pyran-4-yl)amino)pyrimidin-4-yl)-1-isopropylquinolin-4(1H)-one]
- IC50 (CDK6/Cyclin D3): 209 nM
- IC50 (CDK4/Cyclin D1): 9.1 nM

Compound: CC(C)n1c(CN2CCCC(F)(F)C2)cc(=O)c2ccc(-c3nc(N[C@@H]4CCOC[C@H]4O)ncc3F)cc21 [Example 70, 2-((3,3-difluoropiperidin-1-yl)methyl)-7-(5-fluoro-2-(((3S,4R)-3-hydroxytetrahydro-2H-pyran-4-yl)amino)pyrimidin-4-yl)-1-isopropylquinolin-4(1H)-one]
- IC50 (CDK6/Cyclin D3): 396 nM
- IC50 (CDK4/Cyclin D1): 11 nM

Compound: Cc1c(CNC2CC2)n(C(C)C)c2cc(-c3nc(N[C@@H]4CCOC[C@H]4O)ncc3F)ccc2c1=O [Example 109, 2-((cyclopropylamino)methyl)-7-(5-fluoro-2-(((3S,4R)-3-hydroxytetrahydro-2H-pyran-4-yl)amino)pyrimidin-4-yl)-1-isopropyl-3-methylquinolin-4(1H)-one]
- IC50 (CDK6/Cyclin D3): 211 nM
- IC50 (CDK4/Cyclin D1): 6.2 nM

Compound: CC(C)n1c(CN2[C@H](C)COC[C@@H]2C)cc(=O)c2ccc(-c3nc(N[C@@H]4CCOC[C@H]4O)ncc3F)cc21 [Example 107, 2-(((3R,5S)-3,5-dimethylmorpholino)methyl)-7-(5-fluoro-2-(((3S,4R)-3-hydroxytetrahydro-2H-pyran-4-yl)amino)pyrimidin-4-yl)-1-isopropylquinolin-4(1H)-one]
- IC50 (CDK6/Cyclin D3): 340 nM
- IC50 (CDK4/Cyclin D1): 7.4 nM

Compound: CC(C)n1c(CN2CCC[C@@H](F)C2)cc(=O)c2ccc(-c3nc(N[C@@H]4CCOC[C@H]4O)ncc3F)cc21 [Example 98, 7-(5-fluoro-2-(((3S,4R)-3-hydroxytetrahydro-2H-pyran-4-yl)amino)pyrimidin-4-yl)-2-(((R)-3-fluoropiperidin-1-yl)methyl)-1-isopropylquinolin-4(1H)-one]
- IC50 (CDK6/Cyclin D3): 370 nM
- IC50 (CDK4/Cyclin D1): 8.6 nM

Compound: CCc1cc(=O)c2ccc(-c3nc(N[C@@H]4CCOC[C@H]4O)ncc3F)cc2n1C(C)C [Example 55, 2-ethyl-7-(5-fluoro-2-(((3S,4R)-3-hydroxytetrahydro-2H-pyran-4-yl)amino)pyrimidin-4-yl)-1-isopropylquinolin-4(1H)-one]
- IC50 (CDK6/Cyclin D3): 345 nM
- IC50 (CDK4/Cyclin D1): 15 nM

Compound: CC(C)n1c(CN2CCO[C@H](C)C2)cc(=O)c2ccc(-c3nc(N[C@@H]4CCOC[C@H]4O)ncc3F)cc21 [Example 18, 7-(5-fluoro-2-(((3S,4R)-3-hydroxytetrahydro-2H-pyran-4-yl)amino)pyrimidin-4-yl)-1-isopropyl-2-(((R)-2-methylmorpholino)methyl)quinolin-4(1H)-one]
- IC50 (CDK6/Cyclin D3): 1210 nM
- IC50 (CDK4/Cyclin D1): 27 nM

Compound: Cc1c(C)n(C(C)C)c2cc(-c3nc(N[C@@H]4CCOC[C@H]4O)ncc3F)ccc2c1=O [Example 16, 7-(5-fluoro-2-(((3S,4R)-3-hydroxytetrahydro-2H-pyran-4-yl)amino)pyrimidin-4-yl)-1-isopropyl-2,3-dimethylquinolin-4(1H)-one]
- IC50 (CDK6/Cyclin D3): 257 nM
- IC50 (CDK4/Cyclin D1): 8.3 nM
